In ChEMBL document CHEMBL2203166, “Small Molecule Ligands For Active Targeting Of TrkC-expressing Tumor Cells” (ACS Med Chem Lett, 2012) one finds CC50, Activity and IC50 data, which are given here for 9 molecules.

Broadly, the IC50 is the concentration that gives 50% inhibition.

The nature of data set [1]: Cytotoxicity against CHO cells. Type of data set: cell-based, Cricetulus griseus. Conditions: chinese hamster, read-out: ED50 (the source's name).
For data set [2], the system named is NIH3T3. The experiment in a line: Cytotoxicity against mouse NIH/3T3 cells after 56 to 60 hrs by MTT assay. Format: cell-based. Conditions: for Activity: mouse, nih3t3; for IC50: Mus musculus, NIH3T3. On the technique in general: Tetrazolium dyes change colour on reduction, which living cells bring about.
Data set [3] concerns NIH3T3. Briefly: Cytotoxicity against mouse NIH/3T3 cells expressing TrkC receptor after 56 to 60 hrs by MTT assay. Format: functional, cell-based.
For the next data set, the system named is MCF7. The experiment in a line: Cytotoxicity against human MCF7 cells. Format: functional, cell-based.
Data set [4] relates to NIH3T3. The experiment in a line: Cytotoxicity against mouse NIH/3T3 cells after 56 to 60 hrs by MTT assay in presence of 3.5 nM of growth factor NT3. Type of data set: cell-based.
Data set [5] relates to NIH3T3. Briefly: Cytotoxicity against mouse NIH/3T3 cells after 56 to 60 hrs by MTT assay in presence of 20 uM of IY-IY-TEG. Type of data set: cell-based.
Data set [6] has as its system NIH3T3. Briefly: Cytotoxicity against mouse NIH/3T3 cells expressing TrkC receptor after 56 to 60 hrs by MTT assay in presence of 20 uM of IY-IY-TEG. Type of data set: functional, cell-based.
Data set [7] relates to NIH3T3. Briefly: Cytotoxicity against mouse NIH/3T3 cells expressing TrkC receptor after 56 to 60 hrs by MTT assay in presence of 3.5 nM of growth factor NT3. Type of data set: functional, cell-based.
The subject of the next data set is 4T1. The experiment in a line: Cytotoxicity against mouse 4T1 cells expressing TrkC receptor after 30 hrs by Calcein-AM assay. Format: functional, cell-based. The following applies: 4T1, 30 h.
Where [8] appears, read: Mus musculus, NIH3T3, read-out: IC50.

Activity calls are given as the source filed them. No cut-off for these calls is given here.

Regarding `CCn1cnc2c(=S)nc[nH]c21`, the CC50 in data set [1] stood at 600 µM.
`CC[C@H](C)[C@H](N)c1cn([C@@H](Cc2ccc(O)cc2)C(=O)N2CCN(c3nc(NCCOCCOCCOCc4cn(CCOCCOCCn5cnc6c(=S)nc[nH]c65)nn4)nc(N4CCN(C(=O)[C@H](Cc5ccc(O)cc5)n5cc([C@@H](N)[C@@H](C)CC)nn5)CC4)n3)CC2)nn1`: in the data set with NIH3T3 [2], the Activity result is “Non-toxic”. The half-inhibitory concentration (IC50) result in the data set on NIH3T3 [3] (nih3t3) is “Active”.
As to `CN(C)c1ccc2c(-c3ccccc3)c3ccc(N(C)C)cc3[o+]c2c1` [ROSAMINE], in the data set with MCF7, inhibition was half-maximal at 0.39 µM (IC50).
Take `Sc1ncnc2nc[nH]c12` [MERCAPTOPURINE ANHYDROUS]: in data set [1], the CC50 worked out at 50 µM. Further, the 50% inhibitory concentration (IC50) in the data set on MCF7 is 2.79 µM.
For the molecule `CC[C@H](C)[C@@H](C(=O)N1CCN(c2nc(NCCOCCOCCOCc3cn(CC#Cc4ccc(-c5c6ccc(=[N+]7CCCCC7)cc-6oc6cc(N7CCCCC7)ccc56)cc4)nn3)nc(N3CCN(C(=O)[C@H]([C@@H](C)CC)n4cc([C@@H](N)Cc5ccc(O)cc5)nn4)CC3)n2)CC1)n1cc([C@@H](N)Cc2ccc(O)cc2)nn1`, the Activity entry in the data set with NIH3T3 [4] and in the data set with NIH3T3 [5] was “Toxic” in each case. In addition, the result with NIH3T3 [6] and with NIH3T3 [7] was Active. Further, the IC50 in the data set on NIH3T3 [2] and with NIH3T3 [3] (setting [8]) was 25.8 µM each time.
Take `CC[C@H](C)[C@H](N)c1cn([C@@H](Cc2ccc(O)cc2)C(=O)N2CCN(c3nc(NCCOCCOCCOCc4cn(CC#Cc5ccc(-c6c7ccc(=[N+]8CCCCC8)cc-7oc7cc(N8CCCCC8)ccc67)cc5)nn4)nc(N4CCN(C(=O)[C@H](Cc5ccc(O)cc5)n5cc([C@@H](N)[C@@H](C)CC)nn5)CC4)n3)CC2)nn1`: the Activity entry in the data set with NIH3T3 [4] and in the data set on NIH3T3 [5] was “Toxic” in each case. Moreover, the outcome in the data set with NIH3T3 [6] and with NIH3T3 [7] was inactive. The IC50 in the data set on 4T1 is 19.9 µM; with NIH3T3 [2], 27.6 µM; in the data set on NIH3T3 [3] (setting [8]), 15.8 µM.
In the case of `C#CCOCCOCCOCCNc1nc(N2CCN(C(=O)[C@H](Cc3ccc(O)cc3)n3cc([C@@H](N)[C@@H](C)CC)nn3)CC2)nc(N2CCN(C(=O)[C@H](Cc3ccc(O)cc3)n3cc([C@@H](N)[C@@H](C)CC)nn3)CC2)n1`, the Activity result with NIH3T3 [2] is “Non-toxic”. Further, in the data set on NIH3T3 [3] (nih3t3), the IC50 entry is given as “Not Active”.
For `S=c1nc[nH]c2c1ncn2CCOCCOCCn1cc(COCCOCCOCCNc2nc(N3CCOCC3)nc(N3CCOCC3)n2)nn1` the same measures were “Non-toxic” and “Not Active”.
In the case of `CCCCn1cnc2c(=S)nc[nH]c21`, the CC50 in data set [1] was determined as 400 µM.
